The values below come from patent US8658351B2, “Determining liver toxicity of an agent using metabolite biomarkers” (Metabolon, Inc., priority 2009, dated 2014).

Read-outs that look alike come from different tables or passages of the source.

Data set [1] has as its system Rats. The data set can be described thus: Rat liver toxicant study: liver histopathology. As to conditions: for Histopathology (Steatosis) / Histopathology (Cholestasis) / Histopathology (Necrosis): rats, daily single oral dose; for Histopathology (Steatosis) / Histopathology (Cholestasis): day at which change was seen; for Histopathology (Necrosis): day at which change was seen (samples day 2 and day 5). As for the experimental part:
Rats were treated daily with a single oral dose of a known liver toxicants at low and high doses (as shown in Table 3) as well as with a vehicle control containing none of the toxicant. The hepatotoxic agents listed in Table 3 are known to induce distinct types of liver histopathology as described in Table 4. Plasma, urine, and liver samples were collected at day 2 and day 5 for metabolomic analysis, liver histopathology, and routine clinical chemistry (i.e., aspartate aminotransferase (AST), alanine aminotransferase (ALT), total bilirubin (TBIL), alkaline phosphatase (ALP)).

The subject of data set [2] is Rats. The data set is described as follows: Rat liver toxicant study: routine clinical chemistry (AST, ALT, TBIL, ALP). The settings on record: day at which change was seen. In kind it is in vivo.
Description: Rats were treated daily with a single oral dose of a known liver toxicants at low and high doses (as shown in Table 3) as well as with a vehicle control containing none of the toxicant. […] Plasma, urine, and liver samples were collected at day 2 and day 5 for metabolomic analysis, liver histopathology, and routine clinical chemistry (i.e., aspartate aminotransferase (AST), alanine aminotransferase (ALT), total bilirubin (TBIL), alkaline phosphatase (ALP)).
The subject of data set [3] is Rats. As to conditions: cited from earlier work.
Data set [4] deals with humans. The settings on record: cited from earlier work.
Where [5] appears, read: High dose, agents known to induce distinct types of liver histopathology.
Where [6] appears, read: classified as No Rat Tox/Human specific.

For the compound `CCSCCC(N)C(=O)O` (racemic) [Ethionine, DL Ethionine], the “Histopathology (Steatosis)” value in data set [1] (high dose) is reported as “Day2~”; in data set [1] (low dose), “Day2”. Moreover, the “Clinical Chemistry TBIL” value in data set [2] (high dose) and in data set [2] (low dose) was “Day2~” throughout. Besides, the “Classification of toxic effect on liver histopathology (type of histopathology)” value (“Classification … (type of histopathology)” below) in data set [3] (setting [5]) is on record as “Steatosis”.

For `S=C=Nc1cccc2ccccc12` [ANIT, 1-naphthyl isothiocyanate], in data set [1] (high dose), the “Histopathology (Cholestasis)” value is on record as “Day2~”. The “Histopathology (Cholestasis)” value in data set [1] (low dose) was “Day5”. For the same compound, in data set [2] (high dose), the “Clinical Chemistry ALT” value is recorded as “Day2~”, the “Clinical Chemistry AST” value is given as “Day2~” and the “Clinical Chemistry TBIL” value is “Day2~”. Further, in data set [2] (low dose), the “Clinical Chemistry ALT” value is “Day5” and the “Clinical Chemistry TBIL” value was “Day5”.

With `CC(=O)Nc1ccc(O)cc1` [Acetaminophen], the “Histopathology (Necrosis)” value in data set [1] (high dose) and in data set [1] (low dose) was “Day2” throughout.

As for `O=C(O)COc1nn(Cc2ccccc2)c2ccccc12` [Bendazac], the “Histopathology (Necrosis)” value in data set [1] (high dose) and in data set [1] (low dose) was “Day5” each time. For the same compound, the “Clinical Chemistry ALP” value is reported as “Day2~” in data set [2] (high dose) and “Day2” in data set [2] (low dose). Moreover, the “Clinical Chemistry ALT” value in data set [2] (high dose) and in data set [2] (low dose) was “Day5” throughout. Moreover, in data set [3] (rat, in vivo), the “Classification … (type of histopathology)” value is recorded as “Necrosis”.

In the case of `NC(=O)N1c2ccccc2C=Cc2ccccc21` [Carbamazepine], in data set [1] (setting [6]), the “Hepatotoxic changes in rats (histopathology, clinical chemistry)” value is on record as “no hepatotoxic changes”. Besides, the Hepatotoxicity to humans result in data set [4] is recorded as “known hepatotoxins to humans”. Also, the “Classification … (type of histopathology)” value in data set [3] (rat, in vivo) was “No Histopathology”.

For `ClC(Cl)(Cl)Cl` [Carbon tetrachloride], the “Histopathology (Steatosis)” value in data set [1] (high dose) and in data set [1] (low dose) was “Day2~” throughout. The “Classification … (type of histopathology)” value in data set [3] (setting [5]) is “Steatosis”.

As to `CC(C)C(=O)Nc1ccc([N+](=O)[O-])c(C(F)(F)F)c1` [Flutamide], in data set [1] (setting [6]), the “Hepatotoxic changes in rats (histopathology, clinical chemistry)” value is reported as “no hepatotoxic changes”. Also, in data set [2] (high dose), the “Clinical Chemistry TBIL” value is recorded as “Day2”. For the same compound, in data set [4], the Hepatotoxicity to humans result is listed as “known hepatotoxins to humans”. The “Classification … (type of histopathology)” value in data set [3] (rat, in vivo) is “No Histopathology”.

As to `CC(=O)N1CCN(c2ccc(OCC3COC(Cn4ccnc4)(c4ccc(Cl)cc4Cl)O3)cc2)CC1` (stereo not shown) [Ketoconazole], in data set [3] (rat, in vivo), the “Classification … (type of histopathology)” value is “Phospholipidosis”.

For `CN(C)CCN(Cc1cccs1)c1ccccn1` [Methapyrilene], in data set [1] (high dose), the “Histopathology (Necrosis)” value was “Day2~”. Further, in data set [1] (low dose), the “Histopathology (Necrosis)” value was “Day5”. In data set [2] (high dose), the “Clinical Chemistry ALP” value is on record as “Day5”, the “Clinical Chemistry ALT” value is recorded as “Day2~”, the “Clinical Chemistry AST” value is given as “Day2~” and the “Clinical Chemistry TBIL” value was “Day2~”. In data set [2] (low dose), the “Clinical Chemistry ALT” value is reported as “Day5”, the “Clinical Chemistry AST” value is “Day5” and the “Clinical Chemistry TBIL” value is reported as “Day5”. Besides, the “Classification … (type of histopathology)” value in data set [3] (rat, in vivo) is recorded as “Necrosis”.

Take `CS(=O)(=O)Nc1ccc([N+](=O)[O-])cc1Oc1ccccc1` [Nimesulide]: the “Hepatotoxic changes in rats (histopathology, clinical chemistry)” value in data set [1] (rat, in vivo) is listed as “no hepatotoxic changes”. Also, the “Clinical Chemistry TBIL” value in data set [2] (high dose) is listed as “Day2”. Further, in data set [2] (low dose), the “Clinical Chemistry ALT” value is given as “Day5” and the “Clinical Chemistry TBIL” value is “Day2”.

As for `CN(C)[C@@H]1C(O)=C(C(N)=O)C(=O)[C@@]2(O)C(O)=C3C(=O)c4c(O)cccc4[C@@](C)(O)[C@H]3C[C@@H]12` [Tetracycline], the “Histopathology (Steatosis)” value is given as “Day5” in data set [1] (high dose) and “Day2~” in data set [1] (low dose).

As to `Clc1ccccc1CN1CCc2sccc2C1` [Ticlopidine], the “Histopathology (Necrosis)” value in data set [1] (high dose) is on record as “Day5”.
